According to patent US20250186430A1, “THERAPY OF INTEROCEPTION DISORDERS WITH CGRP RECEPTOR ANTAGONISTS” (priority 2022, published 2025):

What was measured:
[1] = tested on: rats exposed to the chemotherapeutic drug cisplatin; experiment: cisplatin model of malaise due to antineoplastic chemotherapy; assay type: in vivo; conditions: cisplatin 6 mg/kg intraperitoneal, gepant 10 mg/kg orally, daily, starting two days before cisplatin
Experimental: FIG. 1. Effect of rimegepant, ubrogepant, atogepant and zavegepant (10 mg/kg orally, daily, starting two days before cisplatin) on food consumption/anorexia, weight loss and weight body recovery in rats exposed to cisplatin (6 mg/kg, intraperitoneal), as an experimental model of malaise due to antineoplastic chemotherapy. * p<0.05, ** p<0.01, *** p<0.001, vs control, ANOVA and Tukeys post hoc test.

[2] = tested on: mice with chronic arthritis due to injection of Freund's adjuvant; experiment: chronic arthritis (Freund's adjuvant) model of malaise due to chronic pain; assay type: in vivo; conditions: gepant 10 mg/kg orally, daily, starting two days before arthritis induction
Experimental: FIG. 2. Effects of rimegepant, ubrogepant, atogepant and zavegepant (10 mg/kg orally, daily, starting two days before arthritis induction) on food consumption/anorexia, weight loss and spontaneous motility in mice with chronic arthritis due to injection of Freund's adjuvant as an experimental model of malaise due to chronic pain. * p<0.05, ** p<0.01, *** p<0.001 vs Arthritis, ANOVA and Tukeys post hoc test.

[3] = tested on: rats subjected to laparotomy and gut manipulation; experiment: laparotomy and gut manipulation model of malaise due to abdominal surgery; assay type: in vivo; conditions: gepant 10 mg/kg orally, daily, starting two days before surgery
Experimental: FIG. 3. Effects of rimegepant, ubrogepant, atogepant and zavegepant (10 mg/kg orally, daily, starting two days before surgery) on body weight loss and food consumption/anorexia in rats subjected to laparotomy and gut manipulation as an experimental model of malaise due to abdominal surgery. * p<0.05, ** p<0.01, *** p<0.001 vs Laparotomy, ANOVA and Tukeys post hoc test.

[4] = tested on: rats treated with carbon tetrachloride; experiment: carbon tetrachloride model of malaise due to hepatopathy; assay type: in vivo; conditions: gepant 10 mg/kg orally, daily, starting two days before carbon tetrachloride
Experimental: Further, we have tested the gepants in a model of hepatopathy, a condition that typically prompts asthenia, weight loss and anhedonia.
FIG. 4. Effects of rimegepant, ubrogepant, atogepant and zavegepant (10 mg/kg orally, daily, starting two days before carbon tetrachloride) on body weight loss and sweet water consumption in rats treated with carbon tetrachloride as a model of malaise due to hepatitis/hepatopathy. * p<0.05, ** p<0.01, *** p<0.001 vs Hepatitis, ANOVA and Tukeys post hoc test.

[5] = tested on: rats injected with cerulein; experiment: cerulein model of pancreatitis; assay type: in vivo; conditions: gepant 10 mg/kg orally, daily, starting two days before cerulein treatment
Experimental: FIG. 5. Effects of rimegepant, ubrogepant, atogepant and zavegepant (10 mg/kg orally, daily, starting two days before cerulein treatment) on body weight loss and spontaneous motility in rats injected with cerulein as an experimental model of pancreatitis. * p<0.05, ** p<0.01, *** p<0.001 vs Pancreatitis, ANOVA and Tukeys post hoc test.

[6] = tested on: rats treated with a diet containing 0.75% adenine; experiment: 0.75% adenine diet model of renal insufficiency; assay type: in vivo; conditions: gepant 10 mg/kg orally, daily, starting two days before nephrotoxic diet
Experimental: Further, we have tested the gepants in rats treated with a diet containing 0.75% adenine as an experimental model of renal insufficiency.
FIG. 6. Effects of rimegepant, ubrogepant, atogepant and zavegepant (10 mg/kg orally, daily, starting two days before exposure to the nephrotoxic diet) on body weight loss and food consumption/anorexia in rats exposed to a diet containing 0.75% adenine as an experimental model of renal insufficiency. *p<0.05, ** p<0.01, *** p<0.001 vs Kidney Failure, ANOVA and Tukeys post hoc test.

[7] = tested on: mice sensitized and re-challenged with ovalbumin; experiment: ovalbumin model of asthma or chronic obstructive pulmonary disease; assay type: in vivo; conditions: gepant 10 mg/kg orally, daily, starting two days before antigen rechallenge
Experimental: FIG. 7. Effects of rimegepant, ubrogepant, atogepant and zavegepant (10 mg/kg orally, daily, starting two days before antigen rechallenge) on spontaneous motility, body weight loss and sweet water ingestion of mice sensitized and re-challenged with ovalbumin as a model of asthma or chronic obstructive pulmonary disease. * p<0.05, ** p<0.01, *** p<0.001 vs […], ANOVA and Tukeys post hoc test.

[8] = tested on: rats injected with Yoshida hepatoma; experiment: Yoshida hepatoma model of malaise due to tumor cachexia; assay type: in vivo; conditions: gepant 10 mg/kg orally, daily, starting two days before tumor injection
Experimental: As additional models of malaise due to interoceptive information, we have adopted those of tumor cachexia and sepsis.
FIG. 8. Effects of rimegepant, ubrogepant, atogepant and zavegepant (10 mg/kg orally, daily, starting two days before tumor injection) on body weight loss, muscle mass and food consumption/anorexia in rats injected with Yoshida hepatoma, as classic model of malaise due to tumor cachexia. * p<0.05, ** p<0.01, *** p<0.001. **** p<0.0001 vs Hepatoma, ANOVA and Tukeys post hoc test.

[9] = tested on: rats injected intraperitoneally with lipopolysaccharides from Salmonella Typhimurium; experiment: lipopolysaccharide model of malaise due to sepsis/systemic immune activation; assay type: in vivo; conditions: gepant 10 mg/kg orally, daily, starting two days before lipopolysaccharides injection
Experimental: FIG. 9. Effects of rimegepant, ubrogepant, atogepant and zavegepant (10 mg/kg orally, daily, starting two days before lipopolysaccharides injection) on body weight loss and food consumption/anorexia in rats injected intraperitoneally with lipopolysaccharides from Salmonella Typhimurium as a classic model of malaise due to sepsis/systemic immune activation. * p<0.05, ** p<0.01, vs Sepsis, ANOVA and Tukeys post hoc test.

[10] = background art; cited from earlier work
[11] = background art; cited from earlier work; remark: listed apart in the source

Row | SMILES | body weight loss [1] | food aversion/anorexia [1] | weight body recovery [1] | food aversion/anorexia [2] | spontaneous motility [2] | weight loss [2] | food aversion/anorexia [3] | weight loss [3] | sweet water consumption (index of motivational behavior and reduced anhedonia) [4] | weight loss [4] | reduction in spontaneous motility [5] | weight loss [5] | decrease of food consumption/anorexia [6] | weight loss [6] | decrease of sweet water consumption [7] | spontaneous motility (parameter of malaise) [7] | weight loss [7] | loss of muscle mass [8] | reduction of food consumption/anorexia [8] | hepatotoxicity [10] | further results
1 | C[C@@H]1[C@H](c2c(F)ccc(F)c2F)C[C@H](NC(=O)c2cnc3c(c2)C[C@@]2(C3)C(=O)Nc3ncccc32)C(=O)N1CC(F)(F)F [atogepant] | reduces | reduces | accelerates | reduces | increases | reduces | in part | completely prevents | triggers an increase | reduces | prevents | prevents | reduces | reduces | reduces | reduces | reduces | counteracting | counteracting | non-hepatotoxic | weight loss [8]: reducing; decrease of food consumption/anorexia [9]: reduces; weight loss [9]: reduces
2 | NCCCC[C@H](NC(=O)[C@@H](Cc1cc(Br)c(O)c(Br)c1)NC(=O)N1CCC(N2Cc3ccccc3NC2=O)CC1)C(=O)N1CCN(c2ccncc2)CC1 [olcegepant] |  |  |  |  |  |  |  |  |  |  |  |  |  |  |  |  |  |  |  | occurrence of hepatotoxicity | efficacy as anti-migraine drugs [11]: proved efficacious
3 | N[C@@H]1c2cccnc2[C@H](OC(=O)N2CCC(n3c(=O)[nH]c4ncccc43)CC2)CC[C@H]1c1cccc(F)c1F [rimegepant] | reduces | reduces | accelerates | reduces | increases | reduces | in part | completely prevents | triggers an increase | reduces | prevents | prevents | reduces | reduces | reduces | reduces | reduces | counteracting | counteracting | non-hepatotoxic | weight loss [8]: reducing; decrease of food consumption/anorexia [9]: reduces; weight loss [9]: reduces
4 | O=C(N[C@@H]1CC[C@@H](c2cccc(F)c2F)CN(CC(F)(F)F)C1=O)N1CCC(n2c(=O)[nH]c3ncccc32)CC1 [telcagepant] |  |  |  |  |  |  |  |  |  |  |  |  |  |  |  |  |  |  |  | occurrence of hepatotoxicity | efficacy as anti-migraine drugs [11]: proved efficacious
5 | C[C@@H]1[C@H](c2ccccc2)C[C@H](NC(=O)c2cnc3c(c2)C[C@@]2(C3)C(=O)Nc3ncccc32)C(=O)N1CC(F)(F)F [ubrogepant] | reduces | reduces | accelerates | reduces | increases | reduces | in part | completely prevents | triggers an increase | reduces | prevents | prevents | reduces | reduces | reduces | reduces | reduces | counteracting | counteracting | non-hepatotoxic | weight loss [8]: reducing; decrease of food consumption/anorexia [9]: reduces; weight loss [9]: reduces
6 | Cc1cc(C[C@@H](NC(=O)N2CCC(c3cc4ccccc4[nH]c3=O)CC2)C(=O)N2CCN(C3CCN(C)CC3)CC2)cc2cn[nH]c12 [zavegepant] | reduces | reduces | accelerates | reduces | increases | reduces | in part | completely prevents | triggers an increase | reduces | prevents | prevents | reduces | reduces | reduces | reduces | reduces | counteracting | counteracting | non-hepatotoxic | weight loss [8]: reducing; decrease of food consumption/anorexia [9]: reduces; weight loss [9]: reduces
